Laboratory results taken from patent publication US20250313533A1, “QUINOLINE CARBOXYLIC ACID ESTER COMPOUND AND PREPARATION METHOD AND USE THEREOF” (priority 2019, published 2025).

Columns and labels:
cucumber seedlings = assay: Safety for plant growth after application; type: in vivo; settings: dosage 200 ppm
Procedure, shortened: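 Safety to the crop is assessed on cucumber seedlings in indoor pots by tracking how treatment alters leaf area, chlorophyll level and height growth rate.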

[1] = test system: indoor potted cucumber seedlings; assay: Effect of improving growth and development of crops; type: in vivo; design: Rate of growth rate increase (%): concentration or dose not given beside the values; settings: versus blank control; for Rate of chlorophyll content increase (%) / Rate of leaf area increase (%): 14 days after application; for Rate of growth rate increase (%): plant height 14 days after application; for Rate of leaf area increase (%): second leaf
Procedure, shortened: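 Growth effects were scored as percent increases in height growth rate, second-leaf area and chlorophyll (SPAD meter), comparing values taken before and 14 days after application.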

black shank in potatoes = assay: Living crops in vivo protective activity, potatoes (root irrigation); settings: Solanum tuberosum, read-out: efficacy against black shank in potatoes; for pest or weed control at 5 ppm: dosage 5 ppm; for pest or weed control at 10 ppm: dosage 10 ppm
Protocol: Root irrigation was carried out on the potatoes for tests according to the designed concentration of the agents. The dosage for each plant was 200 mL and was kept consistent (also for the control). The black shank bacteria were inoculated on the second day after the application. The results were investigated according to the disease condition.

[2] = test system: pathogenic bacteria causing stem rot in sweet potatoes; assay: In vitro bactericidal activity, stem rot in sweet potatoes; type: cell-based, dikia; settings: read-out: inhibitory rate; for inhibition at 1 ppm: dosage 1 ppm; for inhibition at 5 ppm: dosage 5 ppm
[3] = test system: pathogenic bacteria causing black rot in Chinese cabbages; assay: In vitro bactericidal activity, black rot in Chinese cabbages; type: cell-based, xanthomonas; settings: Xanthomonas, read-out: inhibitory rate; for inhibition at 1 ppm: dosage 1 ppm; for inhibition at 5 ppm: dosage 5 ppm
[4] = test system: bacterial wilt in tobacco; assay: whole plant or invertebrate; settings: Nicotiana tabacum, read-out: efficacy against bacterial wilt in tobacco
[5] = test system: pathogenic bacteria causing bacterial angular leaf spot in cucumbers; assay: In vitro bactericidal activity, bacterial angular leaf spot in cucumbers; type: cell-based, pseudomonas; settings: read-out: inhibitory rate; for inhibition at 1 ppm: dosage 1 ppm; for inhibition at 5 ppm: dosage 5 ppm
[6] = test system: pathogenic bacteria causing bacterial wilt in tobacco; assay: whole plant or invertebrate; type: cell-based, ralstonia; settings: read-out: inhibitory rate
[7] = test system: stem rot in sweet potatoes; assay: whole plant or invertebrate; settings: read-out: efficacy against stem rot in sweet potatoes
[8] = test system: fruit blotch in watermelons; assay: whole plant or invertebrate; settings: read-out: efficacy against fruit blotch in watermelons
[9] = test system: soft rot in Chinese cabbages; assay: whole plant or invertebrate; settings: 48 h, read-out: efficacy against soft rot in Chinese cabbages
[10] = test system: pathogenic bacteria causing fruit blotch in watermelons; assay: In vitro bactericidal activity, fruit blotch in watermelons; type: cell-based, acidovorax; settings: read-out: inhibitory rate; for inhibition at 1 ppm: dosage 1 ppm; for inhibition at 5 ppm: dosage 5 ppm
[11] = test system: pathogenic bacteria causing fire blight in pears; assay: In vitro bactericidal activity, fire blight in pears; type: cell-based, erwinia; settings: Erwinia, read-out: inhibitory rate; for inhibition at 1 ppm: dosage 1 ppm; for inhibition at 5 ppm: dosage 5 ppm
bacterial blight in rice = assay: whole plant or invertebrate; settings: Oryza sativa, read-out: efficacy against bacterial blight in rice
[12] = test system: pathogenic bacteria causing bacterial blight in rice; assay: whole plant or invertebrate; type: cell-based, xanthomonas; settings: read-out: inhibitory rate
[13] = test system: pathogenic bacteria causing black shank in potatoes; assay: In vitro bactericidal activity, black shank in potatoes; type: cell-based; settings: read-out: inhibitory rate; for inhibition at 1 ppm: dosage 1 ppm; for inhibition at 5 ppm: dosage 5 ppm
[14] = test system: pathogenic bacteria causing bacterial wilt in cassava; assay: organism not typed; type: cell-based; settings: read-out: inhibitory rate

Compound | safety for plant growth (discoloration, necrosis, wilt, malformation) (cucumber seedlings) | Rate of chlorophyll content increase (%) [1] [%] | Rate of growth rate increase (%) [1] [%] | Rate of leaf area increase (%) [1] [%] | pest or weed control at 5 ppm (black shank in potatoes) [%] | pest or weed control at 10 ppm (black shank in potatoes) [%] | inhibition at 1 ppm [2] [%] | inhibition at 5 ppm [2] [%] | inhibition at 1 ppm [3] [%] | inhibition at 5 ppm [3] [%] | pest or weed control at 5 ppm [4] [%] | pest or weed control at 10 ppm [4] [%] | inhibition at 1 ppm [5] [%] | inhibition at 5 ppm [5] [%] | inhibition at 1 ppm [6] [%] | inhibition at 5 ppm [6] [%] | pest or weed control at 5 ppm [7] [%] | pest or weed control at 10 ppm [7] [%] | pest or weed control at 5 ppm [8] [%] | pest or weed control at 10 ppm [8] [%] | further results
COCCOC(=O)c1cn(C2CC2)c2cc(SCC(F)(F)F)c(F)cc2c1=O [Compound 390] | safe for plant growth | 17 | 13 | 15 | ≥ 90 | ≥ 90 | ≥ 90 | ≥ 90 | ≥ 90 | ≥ 90 | ≥ 90 | ≥ 90 | ≥ 90 | ≥ 90 | ≥ 90 | ≥ 90 | ≥ 90 | ≥ 90 | ≥ 90 | ≥ 90 | pest or weed control at 5 ppm [9]: ≥ 90%; pest or weed control at 10 ppm [9]: ≥ 90%; inhibition at 1 ppm [10]: ≥ 90%; inhibition at 5 ppm [10]: ≥ 90%; inhibition at 1 ppm [11]: ≥ 90%; inhibition at 5 ppm [11]: ≥ 90%; pest or weed control at 5 ppm (bacterial blight in rice): ≥ 90%; pest or weed control at 10 ppm (bacterial blight in rice): ≥ 90%; inhibition at 1 ppm [12]: ≥ 90%; inhibition at 5 ppm [12]: ≥ 90%; inhibition at 1 ppm [13]: ≥ 90%; inhibition at 5 ppm [13]: ≥ 90%; inhibition at 1 ppm [14]: ≥ 90%; inhibition at 5 ppm [14]: ≥ 90%
CNc1cc2c(cc1F)c(=O)c(C(=O)OCCO)cn2C1CC1 [Compound 400] | safe for plant growth | 17 | 13 | 18 | ≥ 90 | ≥ 90 | ≥ 90 | ≥ 90 | ≥ 90 | ≥ 90 | ≥ 90 | ≥ 90 | ≥ 90 | ≥ 90 | ≥ 90 | ≥ 90 | ≥ 90 | ≥ 90 | ≥ 90 | ≥ 90 | pest or weed control at 5 ppm [9]: ≥ 90%; pest or weed control at 10 ppm [9]: ≥ 90%; inhibition at 1 ppm [10]: ≥ 90%; inhibition at 5 ppm [10]: ≥ 90%; inhibition at 1 ppm [11]: ≥ 90%; inhibition at 5 ppm [11]: ≥ 90%; pest or weed control at 5 ppm (bacterial blight in rice): ≥ 90%; pest or weed control at 10 ppm (bacterial blight in rice): ≥ 90%; inhibition at 1 ppm [12]: ≥ 90%; inhibition at 5 ppm [12]: ≥ 90%; inhibition at 1 ppm [13]: ≥ 90%; inhibition at 5 ppm [13]: ≥ 90%; inhibition at 1 ppm [14]: ≥ 90%; inhibition at 5 ppm [14]: ≥ 90%
CNc1cc2c(cc1F)c(=O)c(C(=O)OCCOC)cn2C1CC1 [Compound 401] | safe for plant growth | 13 | 10 | 10 | ≥ 90 | ≥ 90 | ≥ 90 | ≥ 90 | ≥ 90 | ≥ 90 | ≥ 90 | ≥ 90 | ≥ 90 | ≥ 90 | ≥ 90 | ≥ 90 | ≥ 90 | ≥ 90 | ≥ 90 | ≥ 90 | pest or weed control at 5 ppm [9]: ≥ 90%; pest or weed control at 10 ppm [9]: ≥ 90%; inhibition at 1 ppm [10]: ≥ 90%; inhibition at 5 ppm [10]: ≥ 90%; inhibition at 1 ppm [11]: ≥ 90%; inhibition at 5 ppm [11]: ≥ 90%; pest or weed control at 5 ppm (bacterial blight in rice): ≥ 90%; pest or weed control at 10 ppm (bacterial blight in rice): ≥ 90%; inhibition at 1 ppm [12]: ≥ 90%; inhibition at 5 ppm [12]: ≥ 90%; inhibition at 1 ppm [13]: ≥ 90%; inhibition at 5 ppm [13]: ≥ 90%; inhibition at 1 ppm [14]: ≥ 90%; inhibition at 5 ppm [14]: ≥ 90%
CCNc1cc2c(cc1F)c(=O)c(C(=O)OCCO)cn2C1CC1 [Compound 407] | safe for plant growth | 15 | 13 | 11 | ≥ 90 | ≥ 90 | ≥ 90 | ≥ 90 | ≥ 90 | ≥ 90 | ≥ 90 | ≥ 90 | ≥ 90 | ≥ 90 | ≥ 90 | ≥ 90 | ≥ 90 | ≥ 90 | ≥ 90 | ≥ 90 | pest or weed control at 5 ppm [9]: ≥ 90%; pest or weed control at 10 ppm [9]: ≥ 90%; inhibition at 1 ppm [10]: ≥ 90%; inhibition at 5 ppm [10]: ≥ 90%; inhibition at 1 ppm [11]: ≥ 90%; inhibition at 5 ppm [11]: ≥ 90%; pest or weed control at 5 ppm (bacterial blight in rice): ≥ 90%; pest or weed control at 10 ppm (bacterial blight in rice): ≥ 90%; inhibition at 1 ppm [12]: ≥ 90%; inhibition at 5 ppm [12]: ≥ 90%; inhibition at 1 ppm [13]: ≥ 90%; inhibition at 5 ppm [13]: ≥ 90%; inhibition at 1 ppm [14]: ≥ 90%; inhibition at 5 ppm [14]: ≥ 90%
CCNc1cc2c(cc1F)c(=O)c(C(=O)OCCOC)cn2C1CC1 [Compound 408] | safe for plant growth | 18 | 12 | 12 | ≥ 90 | ≥ 90 | ≥ 90 | ≥ 90 | ≥ 90 | ≥ 90 | ≥ 90 | ≥ 90 | ≥ 90 | ≥ 90 | ≥ 90 | ≥ 90 | ≥ 90 | ≥ 90 | ≥ 90 | ≥ 90 | pest or weed control at 5 ppm [9]: ≥ 90%; pest or weed control at 10 ppm [9]: ≥ 90%; inhibition at 1 ppm [10]: ≥ 90%; inhibition at 5 ppm [10]: ≥ 90%; inhibition at 1 ppm [11]: ≥ 90%; inhibition at 5 ppm [11]: ≥ 90%; pest or weed control at 5 ppm (bacterial blight in rice): ≥ 90%; pest or weed control at 10 ppm (bacterial blight in rice): ≥ 90%; inhibition at 1 ppm [12]: ≥ 90%; inhibition at 5 ppm [12]: ≥ 90%; inhibition at 1 ppm [13]: ≥ 90%; inhibition at 5 ppm [13]: ≥ 90%; inhibition at 1 ppm [14]: ≥ 90%; inhibition at 5 ppm [14]: ≥ 90%
CN(C)c1cc2c(cc1F)c(=O)c(C(=O)OCCO)cn2C1CC1 [Compound 413] | safe for plant growth | 13 | 15 | 16 | ≥ 90 | ≥ 90 | ≥ 90 | ≥ 90 | ≥ 90 | ≥ 90 | ≥ 90 | ≥ 90 | ≥ 90 | ≥ 90 | ≥ 90 | ≥ 90 | ≥ 90 | ≥ 90 | ≥ 90 | ≥ 90 | pest or weed control at 5 ppm [9]: ≥ 90%; pest or weed control at 10 ppm [9]: ≥ 90%; inhibition at 1 ppm [10]: ≥ 90%; inhibition at 5 ppm [10]: ≥ 90%; inhibition at 1 ppm [11]: ≥ 90%; inhibition at 5 ppm [11]: ≥ 90%; pest or weed control at 5 ppm (bacterial blight in rice): ≥ 90%; pest or weed control at 10 ppm (bacterial blight in rice): ≥ 90%; inhibition at 1 ppm [12]: ≥ 90%; inhibition at 5 ppm [12]: ≥ 90%; inhibition at 1 ppm [13]: ≥ 90%; inhibition at 5 ppm [13]: ≥ 90%; inhibition at 1 ppm [14]: ≥ 90%; inhibition at 5 ppm [14]: ≥ 90%
